From patent publication US20050112573A1, “Method of detecting toxic substance” (priority 2001, published 2005)

Test system: yeast genes (level of expressed mRNA)
Assay: DNA chip analysis of expressed mRNA of yeast genes after 2 h culture with a toxic chemical substance
Assay type: cell-based, Saccharomyces cerevisiae S288C
How it was run: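 Values are treated-to-control fluorescence ratios from a whole-yeast-genome DNA chip (65° C, over 12 h hybridization) using Cy3/Cy5-labelled cDNA from mRNA. Log-phase S288C cells in YPD at 25° C were exposed 2 h to a toxicant at sublethal, growth-inhibiting concentration.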

Oc1cc(Cl)c(Cl)cc1Cl [(6), 2,4,5-trichlorophenol]
The level of expressed mRNA in the presence of chemical substance/The level of expressed mRNA in the absence of chemical substance (yeast gene YAR010C): 2.3
The level of expressed mRNA in the presence of chemical substance/The level of expressed mRNA in the absence of chemical substance (yeast gene YBL005W-A): 1.2
The level of expressed mRNA in the presence of chemical substance/The level of expressed mRNA in the absence of chemical substance (yeast gene YBL041W): 1.7
The level of expressed mRNA in the presence of chemical substance/The level of expressed mRNA in the absence of chemical substance (yeast gene YBL043W): 26.9
The level of expressed mRNA in the presence of chemical substance/The level of expressed mRNA in the absence of chemical substance (yeast gene YBL078C): 2.4
The level of expressed mRNA in the presence of chemical substance/The level of expressed mRNA in the absence of chemical substance (yeast gene YBR214W): 0.8
The level of expressed mRNA in the presence of chemical substance/The level of expressed mRNA in the absence of chemical substance (yeast gene YCL020W): 1.0
The level of expressed mRNA in the presence of chemical substance/The level of expressed mRNA in the absence of chemical substance (yeast gene YCL027W): 1.3
The level of expressed mRNA in the presence of chemical substance/The level of expressed mRNA in the absence of chemical substance (yeast gene YCR004C): 1.8
The level of expressed mRNA in the presence of chemical substance/The level of expressed mRNA in the absence of chemical substance (yeast gene YCR071C): 2.5
The level of expressed mRNA in the presence of chemical substance/The level of expressed mRNA in the absence of chemical substance (yeast gene YCR088W): 2.0
The level of expressed mRNA in the presence of chemical substance/The level of expressed mRNA in the absence of chemical substance (yeast gene YDL008W): 2.7
The level of expressed mRNA in the presence of chemical substance/The level of expressed mRNA in the absence of chemical substance (yeast gene YDL238C): 2.1
The level of expressed mRNA in the presence of chemical substance/The level of expressed mRNA in the absence of chemical substance (yeast gene YDR055W): 3.9
The level of expressed mRNA in the presence of chemical substance/The level of expressed mRNA in the absence of chemical substance (yeast gene YDR084C): 2.1
The level of expressed mRNA in the presence of chemical substance/The level of expressed mRNA in the absence of chemical substance (yeast gene YDR085C): 2.1
The level of expressed mRNA in the presence of chemical substance/The level of expressed mRNA in the absence of chemical substance (yeast gene YDR104C): 1.7
The level of expressed mRNA in the presence of chemical substance/The level of expressed mRNA in the absence of chemical substance (yeast gene YDR115W): 2.3
The level of expressed mRNA in the presence of chemical substance/The level of expressed mRNA in the absence of chemical substance (yeast gene YDR259C): 0.5
The level of expressed mRNA in the presence of chemical substance/The level of expressed mRNA in the absence of chemical substance (yeast gene YDR315C): 9.4
The level of expressed mRNA in the presence of chemical substance/The level of expressed mRNA in the absence of chemical substance (yeast gene YDR358W): 2.5
The level of expressed mRNA in the presence of chemical substance/The level of expressed mRNA in the absence of chemical substance (yeast gene YDR388W): 1.0
The level of expressed mRNA in the presence of chemical substance/The level of expressed mRNA in the absence of chemical substance (yeast gene YDR432W): 0.6
The level of expressed mRNA in the presence of chemical substance/The level of expressed mRNA in the absence of chemical substance (yeast gene YDR481C): 0.9
The level of expressed mRNA in the presence of chemical substance/The level of expressed mRNA in the absence of chemical substance (yeast gene YDR510W): 1.0
The level of expressed mRNA in the presence of chemical substance/The level of expressed mRNA in the absence of chemical substance (yeast gene YEL042W): 0.5
The level of expressed mRNA in the presence of chemical substance/The level of expressed mRNA in the absence of chemical substance (yeast gene YEL066W): 2.2
The level of expressed mRNA in the presence of chemical substance/The level of expressed mRNA in the absence of chemical substance (yeast gene YER039C): 1.6
The level of expressed mRNA in the presence of chemical substance/The level of expressed mRNA in the absence of chemical substance (yeast gene YER107C): 2.5
The level of expressed mRNA in the presence of chemical substance/The level of expressed mRNA in the absence of chemical substance (yeast gene YER130C): 2.7
The level of expressed mRNA in the presence of chemical substance/The level of expressed mRNA in the absence of chemical substance (yeast gene YFL028C): 1.7
The level of expressed mRNA in the presence of chemical substance/The level of expressed mRNA in the absence of chemical substance (yeast gene YFL043C): 1.8
The level of expressed mRNA in the presence of chemical substance/The level of expressed mRNA in the absence of chemical substance (yeast gene YGL158W): 0.4
The level of expressed mRNA in the presence of chemical substance/The level of expressed mRNA in the absence of chemical substance (yeast gene YGL229C): 2.2
The level of expressed mRNA in the presence of chemical substance/The level of expressed mRNA in the absence of chemical substance (yeast gene YGR136W): 1.1
The level of expressed mRNA in the presence of chemical substance/The level of expressed mRNA in the absence of chemical substance (yeast gene YGR189C): 0.5
The level of expressed mRNA in the presence of chemical substance/The level of expressed mRNA in the absence of chemical substance (yeast gene YGR213C): 4.1
The level of expressed mRNA in the presence of chemical substance/The level of expressed mRNA in the absence of chemical substance (yeast gene YGR257C): 2.1
The level of expressed mRNA in the presence of chemical substance/The level of expressed mRNA in the absence of chemical substance (yeast gene YHR004C): 2.0
The level of expressed mRNA in the presence of chemical substance/The level of expressed mRNA in the absence of chemical substance (yeast gene YHR071W): 2.0
The level of expressed mRNA in the presence of chemical substance/The level of expressed mRNA in the absence of chemical substance (yeast gene YHR139C): 1.9
The level of expressed mRNA in the presence of chemical substance/The level of expressed mRNA in the absence of chemical substance (yeast gene YHR142W): 1.2
The level of expressed mRNA in the presence of chemical substance/The level of expressed mRNA in the absence of chemical substance (yeast gene YIL123W): 0.5
The level of expressed mRNA in the presence of chemical substance/The level of expressed mRNA in the absence of chemical substance (yeast gene YIL140W): 0.5
The level of expressed mRNA in the presence of chemical substance/The level of expressed mRNA in the absence of chemical substance (yeast gene YJL073W): 2.0
The level of expressed mRNA in the presence of chemical substance/The level of expressed mRNA in the absence of chemical substance (yeast gene YJL089W): 1.6
The level of expressed mRNA in the presence of chemical substance/The level of expressed mRNA in the absence of chemical substance (yeast gene YJL116C): 3.4
The level of expressed mRNA in the presence of chemical substance/The level of expressed mRNA in the absence of chemical substance (yeast gene YJR004C): 1.2
The level of expressed mRNA in the presence of chemical substance/The level of expressed mRNA in the absence of chemical substance (yeast gene YJR086W): 1.9
The level of expressed mRNA in the presence of chemical substance/The level of expressed mRNA in the absence of chemical substance (yeast gene YKL008C): 3.8
